Converted amounts (≈) assume the structure as drawn.
Columns and labels:
Assay type in all cases: functional
[1] = Bone resorption pits formation by osteoclast-like cell(OCL) induced by 1-alpha,25-dihydroxy vitamin D3 at 3.33 ug/ml concentration
[2] = Ability to inhibit the resorption pits formation by osteoclast-like cell(OCL) induced by 1-alpha,25-dihydroxy vitamin D3 at conc. 10.00 ug/ml.
[3] = Ability to inhibit the resorption pits formation by osteoclast-like cell(OCL) induced by 1-alpha,25-dihydroxy vitamin D3 at conc. 3.33 ug/ml.
[4] = Cytotoxicity of compound was measured on osteoclastic cells.
[5] = Ability to inhibit the resorption pits formation by osteoclast-like cell(OCL) induced by 1-alpha,25-dihydroxy vitamin D3 at conc. 1.11 ug/ml.
[6] = Bone resorption pits formation by osteoclast-like cell(OCL) induced by 1-alpha,25-dihydroxy vitamin D3 at 0.37 ug/ml concentration
[7] = Bone resorption pits formation by osteoclast-like cell(OCL) induced by 1-alpha,25-dihydroxy vitamin D3 at 1.11 ug/ml concentration
[8] = Ability to inhibit the resorption pits formation by osteoclast-like cell(OCL) induced by 1-alpha,25-dihydroxy vitamin D3.
[9] = Bone resorption pits formation by osteoclast-like cell(OCL) induced by 1-alpha,25-dihydroxy vitamin D3 at 10 ug/ml concentration
[10] = Ability to inhibit the resorption pits formation by osteoclast-like cell(OCL) induced by 1-alpha,25-dihydroxy vitamin D3 at conc. 0.37 ug/ml.

IC50 [8] | Compound | No. of pits [1] | inhibition at 10 µg/mL [2] | inhibition at 3.33 µg/mL [3] | CC50 [4] | inhibition at 1.11 µg/mL [5] | No. of pits [6] | No. of pits [7] | No. of pits [9] | inhibition at 0.37 µg/mL [10]
10.9 µg/mL (≈ 23.7 µM) | CC(C)=CCc1cc(C2CC(=O)c3cc(CC=C(C)C)c(O)c(CC=C(C)C)c3O2)ccc1O (centres undefined) | 108 | 45.2% | 24.4% | 10.4 µg/mL (≈ 22.6 µM) | 18.9% | 150 | 120 | 80 | < 5%
5.7 µg/mL (≈ 14.5 µM) | CC(C)=CCc1cc(C2CC(=O)c3cc(CC=C(C)C)c(O)cc3O2)ccc1O (centres undefined) | 84 | 84.2% | 41.3% | 18.2 µg/mL (≈ 46.4 µM) | 41.2% | 112 | 87 | 23 | 21.7%
0.7 µg/mL (≈ 1.79 µM) | CC(C)=CCc1cc(C2CC(=O)c3ccc4c(c3O2)C=CC(C)(C)O4)ccc1O (centres undefined) | 54 | 78.1% | 62.2% | 16.8 µg/mL (≈ 43 µM) | 54.1% | 74 | 68 | 32 | 48.3%

Compound | IC50 [8] | No. of pits [1] | inhibition at 10 µg/mL [2] | inhibition at 3.33 µg/mL [3] | CC50 [4] | inhibition at 1.11 µg/mL [5] | No. of pits [6] | No. of pits [7] | No. of pits [9] | inhibition at 0.37 µg/mL [10]
CO[C@H]1[C@@H](OC)C[C@H](C)[C@@H](OC)C2=CC(=O)C=C(NC(=O)/C(C)=C/C=C/[C@H](OC)[C@@H](OC(N)=O)/C(C)=C/[C@@H]1C)C2=O [HERBIMYCIN] | 1.1 µg/mL (≈ 1.91 µM) | – | – | – | 1.72 µg/mL (≈ 2.99 µM) | 50.7% | – | – | – | 37.8%
